Results taken from patent publication US20120238488A1, “COMPOUNDS AND METHODS FOR TREATING NEOPLASIA” (priority 2009, published 2012).
Read-outs that look alike come from different tables or passages of the source.

Experiments:
[1] = test system: 22 different cell lines, nine tumor panels (lung, melanoma, ovary, prostate, CNS, breast, pancreas colon and renal); experiment: SRB assay, all tumor cell line panels (summary statements); assay type: cell-based, human; settings: for viability and/or cell proliferation of neoplastic cell lines: lung, breast, CNS, colon, prostate, ovary, pancreas, kidney and melanoma lines, including a multidrug resistant cell line
Description: (§1) SRB assays were performed according to standard National Cancer Institute Guidelines. Briefly, human tumor cells from different cancer panels were seeded into 96 well plates in 100 μL (plating densities ranging from 5-40,000 cells/well depending on the doubling time of individual cell lines) in serum-containing media for twenty-four hours prior to the addition of the compounds to be assayed. After 24 hours, one plate of each cell line was fixed in situ with trichloroacetic acid (TCA). The fixed slides were used to determine the cell population for each cell line at the time of drug addition (Tz). Each compound to be tested was solubilized in DMSO and the desired concentration was then added to the medium and diluted serially 1:10 to provide a total of five or ten drug concentrations plus control (in a final volume of 200 μL). The starting dose before any dilution was 100 uM for all compounds.
(§2) Following drug addition, each culture was incubated for forty-eight hours. The assay was terminated with the addition of cold TCA. The supernatant was discarded, and the plates were washed with tap water and air dried. Sulforhodamine B (SRB) solution was then added to each well. After staining, the bound stain was solubilized and the absorbance was read on an automated plate reader at a wavelength of 515 nm.
(§3) Using the absorbance measurements [time zero, (Tz), control growth, (C), and test growth in the presence of drug at the ten concentration levels (Ti)], the percentage growth was calculated at each of the drug concentrations levels. Percentage growth inhibition was calculated as:
Three dose response parameters were calculated for each experimental agent. […] The drug concentration resulting in total growth inhibition (TGI) was calculated from Ti=Tz. The LC50 (concentration of drug resulting in a 50% reduction in the measured protein at the end of the drug treatment as compared to that at the beginning) indicating a net loss of cells following treatment was calculated from [(Ti−Tz)/Tz]×100=−50.
Each of these parameters in Table 4 was calculated in a sulforhodamine B (SRB) assay, which provides a colorimetric measure of a compound's anti-cancer activity. SRB assays were performed with compounds of the invention in 22 different cell lines (shaded in light gray in Table 4), which represent nine different tumor panels (lung, melanoma, ovary, prostate, CNS, breast, pancreas colon and renal). […] Paclitaxel was added as a non-Na^+K^+-ATPase inhibitor control.

[2] = test system: HCT116 colon cancer, PC3 and DU145 prostate cancer cell lines; experiment: MTT proliferation/viability assay; assay type: cell-based; settings: 72 h, FIGS. 1A-1D, HCT116 only compound 120
Description: All assays were performed in triplicate.
The effect of the different compounds on the proliferation and viability of cancer cell lines was tested. Compound 120 was tested in one colon cancer cell line (HCT116), and compound Nos. 120, 12, 61, 1, and 56 were tested in two prostate cancer cell lines (PC3 and DU145). […] This colorimetric assay uses the reduction of MTT to formazan as a measure of metabolic activity. Untreated cells cultured in the presence of serum were used as a negative control.

[3] = test system: H160 (Lung); experiment: SRB assay, H160; assay type: cell-based, human; settings: 48 h; for TGI / GI50: H160, SRB; for CC50 / GI50: Homo sapiens; for CC50: read-out: LC50
Description: as §1, §2, §3
(§4) [(Ti−Tz)/(C−Tz)]×100 for concentrations for which Ti>/=Tz
(§5) [(Ti−Tz)/Tz]×100 for concentrations for which Ti<Tz.
(§6) Three dose response parameters were calculated for each experimental agent. Growth inhibition of 50% (GI50) was calculated from [(Ti−Tz)/(C−Tz)]×100=50, which was the drug concentration resulting in a 50% reduction in the net protein increase (as measured by SRB staining) in control cells during the drug. The drug concentration resulting in total growth inhibition (TGI) was calculated from Ti=Tz. The LC50 (concentration of drug resulting in a 50% reduction in the measured protein at the end of the drug treatment as compared to that at the beginning) indicating a net loss of cells following treatment was calculated from [(Ti−Tz)/Tz]×100=−50.
(§7) Values were calculated for each of these three parameters when the level of activity was reached; however, if the effect was not reached or was exceeded, the value for that parameter was expressed as greater or less than the maximum or minimum concentration tested.
(§8) Table 4 summarizes results characterizing the effects of compound Nos. 120, 12, 61, 1, and 56 on GI50, which measures the cell growth inhibitory power of the compound, TGI, which measures cytostatic effect (TGI) and LC50, which signifies cytotoxic effect. Each of these parameters in Table 4 was calculated in a sulforhodamine B (SRB) assay, which provides a colorimetric measure of a compound's anti-cancer activity. SRB assays were performed with compounds of the invention in 22 different cell lines (shaded in light gray in Table 4), which represent nine different tumor panels (lung, melanoma, ovary, prostate, CNS, breast, pancreas colon and renal). Ouabain and digoxin were used as controls. Paclitaxel was added as a non-Na^+K^+-ATPase inhibitor control.

[4] = test system: MCF7 (Breast); experiment: SRB assay, MCF7; assay type: cell-based, human; settings: for CC50 / GI50: Homo sapiens; for CC50: MCF7, 48 h, read-out: LC50; for GI50 / TGI: MCF7, SRB, 48 h
Description: as §1, §2, §3, §4, §5, §6, §7, §8

[5] = test system: U251 (CNS); experiment: SRB assay, U251; assay type: cell-based, human; settings: for CC50 / GI50: Homo sapiens; for CC50: read-out: LC50
Description: as §1, §2, §3, §4, §5, §6, §7, §8

[6] = test system: IGROV1 (Ovary); experiment: SRB assay, IGROV1; assay type: cell-based, human; settings: for CC50 / GI50: Homo sapiens; for CC50: IGROV-1, 48 h, read-out: LC50; for GI50: IGROV-1; for GI50 / TGI: IGROV1, SRB, 48 h
Description: as §1, §2, §3, §4, §5, §6, §7, §8

[7] = test system: HCT15 (Colon); experiment: SRB assay, HCT15; assay type: cell-based, human; settings: for TGI / GI50: HCT15, SRB, 48 h; for CC50 / GI50: Homo sapiens; for CC50: HCT-15, 48 h, read-out: LC50; for GI50: HCT-15
Description: as §1, §2, §3, §4, §5, §6, §7, §8

[8] = test system: LOXIMVI (Melanoma); experiment: SRB assay, LOXIMVI; assay type: cell-based, human; settings: 48 h; for CC50 / GI50: Homo sapiens, LOX IMVI; for CC50: read-out: LC50; for GI50 / TGI: LOXIMVI, SRB
Description: as §1, §2, §3, §4, §5, §6, §7, §8

[9] = test system: SU8686 (Pancreas); experiment: SRB assay, SU8686; assay type: cell-based, human; settings: for CC50 / GI50: Homo sapiens; for CC50: SU.86.86, 48 h, read-out: LC50; for GI50: SU.86.86; for GI50 / TGI: SU8686, SRB, 48 h
Description: as §1, §2, §3, §4, §5, §6, §7, §8

[10] = U-251, U251, SRB, 48 h, read-out: GI50

SMILES: C[C@]12CCC(=NOCCN)CC1CCC1C2CC[C@]2(C)C(=O)CCC12 (stereo partly drawn) [Compound 1, (10S,13S)-3-(2-aminoethoxyimino)-10,13-dimethyltetradecahydro-1H-cyclopenta[a]phenanthren-17(2H)-one]
- GI50 action in all cell line panels tested (in words) ([1]; SRB, all cell line panels): nanomolar GI50 action
- viability and/or cell proliferation of neoplastic cell lines [1]: reduced the viability and/or cell proliferation
- inhibition of cell proliferation and viability (MTT) [2]: strong inhibition of cell proliferation and viability

SMILES: C[C@]12CCC(=NOCCN)C=C1CCC1C2CC[C@]2(C)C(=O)CCC12 (stereo partly drawn) [Compound 12, (10R,13S)-3-(2-aminoethoxyimino)-10,13-dimethyl-2,3,7,8,9,10,11,12,13,14,15,16-dodecahydro-1H-cyclopenta[a]phenanthren-17(6H)-one]
- TGI [3]: 5.86 µM
- CC50 [3]: 8.73 µM
- GI50 [3]: 2990 nM
- CC50 [4]: 9.47 µM
- GI50 [4]: 3.79 µM
- TGI [4]: 6.63 µM
- CC50 ([5]; U-251, 48 h): 8.61 µM
- GI50 [5, 10]: 3.09 µM
- TGI ([5]; U251, SRB, 48 h): 5.85 µM
- GI50 action in all cell line panels tested (in words) ([1]; SRB, all cell line panels): mostly single-digit micromolar GI50 action
- viability and/or cell proliferation of neoplastic cell lines [1]: reduced the viability and/or cell proliferation
- CC50 [6]: 68.4 µM
- GI50 [6]: 5370 nM
- TGI [6]: 12.38 µM
- TGI [7]: 6.70 µM
- CC50 [7]: 9.61 µM
- GI50 [7]: 3790 nM
- CC50 [8]: ≥ 117 µM
- GI50 [8]: 660 nM
- TGI [8]: 24.06 µM
- inhibition of cell proliferation and viability (MTT) [2]: strong inhibition of cell proliferation and viability

SMILES: C[C@]12CCC(=NOC3CCNC3)CC1CCC1C2CC[C@]2(C)C(=O)CCC12 (stereo partly drawn) [Compound 56, (10S,13S)-10,13-dimethyl-3-(pyrrolidin-3-yloxyimino)tetradecahydro-1H-cyclopenta[a]phenanthren-17(2H)-one]
- GI50 ([1]; Homo sapiens, SRB, all cell line panels, read-out: GI50 activity for all cell line panels tested): < 100 nM
- GI50 action in all cell line panels tested (in words) ([1]; SRB, all cell line panels): nanomolar GI50 action
- viability and/or cell proliferation of neoplastic cell lines [1]: reduced the viability and/or cell proliferation
- inhibition of cell proliferation and viability (MTT) [2]: strong inhibition of cell proliferation and viability

SMILES: C[C@]12CCC(=NOC3CCNC3)C=C1CCC1C2CC[C@]2(C)C(=O)CCC12 (stereo partly drawn) [Compound 61, (10R,13S)-10,13-dimethyl-3-(pyrrolidin-3-yloxyimino)-2,3,7,8,9,10,11,12,13,14,15,16-dodecahydro-1H-cyclopenta[a]phenanthren-17(6H)-one]
- GI50 action in all cell line panels tested (in words) ([1]; SRB, all cell line panels): nanomolar GI50 action
- viability and/or cell proliferation of neoplastic cell lines [1]: reduced the viability and/or cell proliferation
- inhibition of cell proliferation and viability (MTT) [2]: strong inhibition of cell proliferation and viability

SMILES: C[C@]12CCC(=NOCCN)C=C1CCC1C2CC[C@@]2(C)C1CC[C@@H]2O (stereo partly drawn) [Compound 120, (1S,9aR,11aS)-17-hydroxy-10,13-dimethyl-6,7,8,9,10,11,12,13,14,15,16,17-dodecahydro-1H-cyclopenta[a]phenanthren-3(2H)-one O-2-aminoethyl oxime]
- CC50 [9]: 23.1 µM
- GI50 [9]: 7450 nM
- TGI [9]: 15.27 µM
- TGI [3]: 11.68 µM
- CC50 [3]: 21.7 µM
- GI50 [3]: 4130 nM
- CC50 [4]: 24.1 µM
- GI50 [4]: 7.04 µM
- TGI [4]: 14.85 µM
- CC50 ([5]; U-251, 48 h): 68.5 µM
- GI50 [5, 10]: 6.77 µM
- TGI ([5]; U251, SRB, 48 h): 27.92 µM
- GI50 action in all cell line panels tested (in words) ([1]; SRB, all cell line panels): mostly single-digit micromolar GI50 action
- viability and/or cell proliferation of neoplastic cell lines [1]: reduced the viability and/or cell proliferation
- CC50 [6]: 67.4 µM
- GI50 [6]: 5490 nM
- TGI [6]: 10.74 µM
- TGI [7]: 23.51 µM
- CC50 [7]: 76.3 µM
- GI50 [7]: 6390 nM
- CC50 [8]: 97.2 µM
- GI50 [8]: 7140 nM
- TGI [8]: 25.19 µM
- inhibition of cell proliferation and viability (MTT) [2]: strong inhibition of cell proliferation and viability

SMILES: C[C@H]1O[C@@H](O[C@H]2[C@@H](O)C[C@H](O[C@H]3[C@@H](O)C[C@H](O[C@H]4CC[C@@]5(C)[C@H](CC[C@@H]6[C@@H]5C[C@@H](O)[C@]5(C)[C@@H](C7=CC(=O)OC7)CC[C@]65O)C4)O[C@@H]3C)O[C@@H]2C)C[C@H](O)[C@@H]1O [Digoxin, reference compound]
- CC50 [9]: 0.63 µM
- GI50 [9]: 30 nM
- TGI [9]: 0.09 µM
- TGI [3]: <0.08 µM
- CC50 [3]: 0.3 µM
- GI50 [3]: < 80 nM
- CC50 [4]: 0.4 µM
- GI50 [4]: < 0.08 µM
- TGI [4]: 0.1 µM
- TGI [5]: 0.10 µM
- GI50 ([5]; U-251, 48 h): 0.02 µM
- CC50 ([5]; U-251, 48 h): 0.61 µM
- CC50 [6]: > 100 µM
- GI50 [6]: 40 nM
- TGI [6]: 0.35 µM
- TGI [7]: 0.06 µM
- CC50 [7]: 0.16 µM
- GI50 [7]: 30 nM
- CC50 [8]: > 100 µM
- GI50 [8]: 80 nM
- TGI [8]: >100 µM

SMILES: CC(=O)O[C@H]1C(=O)[C@@]2(C)[C@H]([C@H](OC(=O)c3ccccc3)[C@]3(O)C[C@H](OC(=O)[C@H](O)[C@@H](NC(=O)c4ccccc4)c4ccccc4)C(C)=C1C3(C)C)[C@]1(OC(C)=O)CO[C@@H]1C[C@@H]2O [Paclitaxel, reference compound]
- CC50 [9]: 16.5 µM
- GI50 [9]: 8 nM
- TGI [9]: 7.927 µM
- TGI [3]: 3.7685 µM
- CC50 [3]: > 10 µM
- GI50 [3]: < 100 nM
- CC50 [4]: > 10 µM
- GI50 [4]: < 0.1 µM
- TGI [4]: >10 µM
- CC50 ([5]; U-251, 48 h): 6.73 µM
- GI50 [5, 10]: < 0.001 µM
- TGI ([5]; U251, SRB, 48 h): 1.745 µM
- CC50 [6]: 10.6 µM
- GI50 [6]: 1 nM
- TGI [6]: 3.305 µM
- TGI [7]: 0.852 µM
- CC50 [7]: 12.3 µM
- GI50 [7]: 53 nM
- CC50 [8]: 5.18 µM
- GI50 [8]: < 1 nM
- TGI [8]: 0.288 µM
